Experimental data: US20120277209A1, “PYRAZINE COMPOUNDS AS PHOSPHODIESTERASE 10 INHIBITORS” (Amgen Inc., priority 2009, published 2012)

What follows are compounds tested against PDE10 (UniProt Q9Y233) (assay: PDE10 enzyme inhibition, IMAP TR-FRET assay (MPDE10A7 Enzyme Activity and Inhibition)). Settings: IC50 class against PDE10; read-out: IC50.
Format: biochemical
Outline: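 IMAP TR-FRET read-out of PDE10 hydrolysis of fluorescein-cAMP or -cGMP (60 min, room temperature), after a 30 min compound-enzyme preincubation. Enzyme source was PDE10A or tissue homogenate. Averaged IC50s are reported as five range classes.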
For `COc1cnccc1-c1nccnc1Oc1ccc(C(=O)c2nc3ccccc3[nH]2)cc1` [Example 113, (1H-benzo[d]imidazol-2-yl)(4-(3-(3-methoxypyridin-4-yl)pyrazin-2-yloxy)phenyl)methanone], the IC50 was 25 to 100 nM. `CN1CCC(c2nccnc2Oc2ccc(C(=O)c3nc4ccccc4[nH]3)cc2)=CC1=O` [Example 252, 4-(3-(4-(1H-benzo[d]imidazole-2-carbonyl)phenoxy)pyrazin-2-yl)-1-methyl-5,6-dihydropyridin-2(1H)-one] was tested, and the IC50 was under 25 nM. `COc1ccc(-c2nccnc2Oc2ccc(C(=O)c3nc4ccccc4[nH]3)cc2)c(OC)n1` [Example 111, (1H-benzo[d]imidazol-2-yl)(4-(3-(2,6-dimethoxypyridin-3-yl)pyrazin-2-yloxy)phenyl)methanone] showed an IC50 of 25 to 100 nM. `COCC(=O)N1CCC(c2nccnc2Oc2ccc(Nc3nc4ccccc4s3)cc2)CC1` [Example 233, 1-(4-(3-(4-(benzo[d]thiazol-2-ylamino)phenoxy)pyrazin-2-yl)piperidin-1-yl)-2-methoxyethanone] gave an IC50 of under 25 nM. `O=C(c1ccc(Oc2nccnc2C2(F)CCOCC2)cc1)c1nc2ccccc2[nH]1` [Example 203, (1H-BENZO[D]IMIDAZOL-2-YL)(4-(3-(4-FLUOROTETRAHYDRO-2H-PYRAN-4-YL)PYRAZIN-2-YLOXY)PHENYL)METHANONE] was tested, and the IC50 was under 25 nM. In the case of `N#CC1CCN(c2nccnc2Oc2ccc(Nc3nc4ccccc4s3)cc2)C1` (centres unmarked) [Example 84, 1-(3-(4-(benzo[d]thiazol-2-ylamino)phenoxy)pyrazin-2-yl)pyrrolidine-3-carbonitrile], the IC50 is reported as under 25 nM. `COc1nc2ccccc2cc1-c1nccnc1Oc1ccc(C(=O)c2nc3ccccc3[nH]2)cc1` [Example 115, (1H-benzo[d]imidazol-2-yl)(4-(3-(2-methoxyquinolin-3-yl)pyrazin-2-yloxy)phenyl)methanone] was tested, and the IC50 was under 25 nM. For `Cc1ccc(-c2nccnc2Oc2ccc(Nc3nc4ccccc4s3)cc2)cn1` [Example 140, N-(4-(3-(6-methylpyridin-3-yl)pyrazin-2-yloxy)phenyl)benzo[d]thiazol-2-amine], the IC50 was under 25 nM. `O=C(c1ccc(Oc2nccnc2[C@H]2CCC[C@@H](O)C2)cc1)c1nc2ccccc2[nH]1` (racemic) [Example 189, (rac)-cis-(1H-benzo[d]imidazol-2-yl)(4-(3-(3-hydroxycyclohexyl)pyrazin-2-yloxy)phenyl)methanone] showed an IC50 of under 25 nM. Work on `OC1(c2nccnc2Oc2ccc(Nc3nc4ccccc4s3)cc2)CCOCC1` [Example 202, 4-(3-(4-(BENZO[D]THIAZOL-2-YLAMINO)PHENOXY)PYRAZIN-2-YL)TETRAHYDRO-2H-PYRAN-4-OL] yielded an IC50 of under 25 nM. `c1ccc2sc(Nc3ccc(Oc4nccnc4C4CCOC4)cc3)nc2c1` (centres unmarked) [Example 221, N-(4-(3-(TETRAHYDROFURAN-3-YL)PYRAZIN-2-YLOXY)PHENYL)BENZO[D]THIAZOL-2-AMINE] was tested, and the IC50 was under 25 nM. Work on `c1cncc(-c2nccnc2Oc2ccc(Nc3nc4ccccc4s3)cc2)c1` [Example 148, N-(4-(3-(pyridin-3-yl)pyrazin-2-yloxy)phenyl)benzo[d]thiazol-2-amine] yielded an IC50 of under 25 nM. `COC(=O)C1CN(c2nccnc2Oc2ccc(Nc3nc4ccccc4s3)cc2)C1` [Example 83, methyl 1-(3-(4-(benzo[d]thiazol-2-ylamino)phenoxy)pyrazin-2-yl)azetidine-3-carboxylate] gave an IC50 of under 25 nM. `O=C(c1ccc(Oc2nccnc2-c2cccnc2)cc1)c1nc2ccccc2[nH]1` [Example 123, (1H-benzo[d]imidazol-2-yl)(4-(3-(pyridin-3-yl)pyrazin-2-yloxy)phenyl)methanone] gave an IC50 of under 25 nM. `COc1ncc(F)cc1-c1nccnc1Oc1ccc(C(=O)c2nc3ccccc3[nH]2)cc1` [Example 116, (1H-benzo[d]imidazol-2-yl)(4-(3-(5-fluoro-2-methoxypyridin-3-yl)pyrazin-2-yloxy)phenyl)methanone] was tested, and the IC50 was under 25 nM. With `COc1ncccc1-c1nccnc1Oc1ccc(Nc2nc3cc(F)ccc3s2)cc1` [Example 154, 5-fluoro-N-(4-(3-(2-methoxypyridin-3-yl)pyrazin-2-yloxy)phenyl)benzo[d]thiazol-2-amine] the IC50 was 25 to 100 nM. In the case of “(6-fluoro-1-methyl-1H-benzo[d]imidazol-2-yl)(4-(3-(tetrahydro-2H-pyran-4-yl)pyrazin-2-yloxy)phenyl)methanone and (5-fluoro-1-methyl-1H-benzo[d]imidazol-2-yl)(4-(3-(tetrahydro-2H-pyran-4-yl)pyrazin-2-yloxy)phenyl)methanone [Example 185]”, the IC50 is reported as under 25 nM. `Cn1c(C(=O)c2ccc(Oc3nccnc3C3CCOCC3)cc2)nc2ccccc21` [Example 184, (1-methyl-1H-benzo[d]imidazol-2-yl)(4-(3-(tetrahydro-2H-pyran-4-yl)pyrazin-2-yloxy)phenyl)methanone] showed an IC50 of under 25 nM.

Same assay, conditions: PDE10 enzyme inhibition; average IC50 data for each compound; read-out: Average IC50
`N#CCC(=O)N1CCC(c2nccnc2Oc2ccc(C(=O)c3nc4ccccc4[nH]3)cc2)CC1` [drawing 997] showed an IC50 of 0.025 nM. In the case of `c1ccc2sc(Nc3ccc(Oc4nccnc4-c4ccc(N5CCOCC5)cc4)cc3)nc2c1` [drawing 763], the IC50 is reported as 1070 nM. Compound `O=C(c1ccc(Oc2nccnc2[C@@H]2CCC[C@@H](O)C2)cc1)c1nc2ccccc2[nH]1` has an IC50 of 0.992 nM. `CO[C@@H]1CC=C(c2nccnc2Oc2ccc(C(=O)c3nc4ccccc4[nH]3)cc2)CC1` (stereo in doubt) gave an IC50 of 4 nM. `O=C(c1ccc(Oc2nccnc2N2CCOCC2)cc1)c1nc2ncccc2[nH]1` gave an IC50 of 11.6 nM. Work on `N#C[C@H]1CCN(c2nccnc2Oc2ccc(Nc3nc4ccccc4s3)cc2)C1` (stereo in doubt) yielded an IC50 of 3.3 nM. Compound `COc1nc2ccccc2cc1-c1nccnc1Oc1ccc(C(=O)c2nc3ccccc3[nH]2)cc1` [drawing 943] has an IC50 of 224 nM. For `O=C(c1ccc(Oc2nccnc2C2CCOCC2)cc1)c1nc2ccc(F)cc2[nH]1` [drawing 987], the IC50 was 0.593 nM. In the case of `O=C(c1ccc(Oc2nccnc2C(=O)NCCc2ccccn2)cc1)c1nc2ccccc2[nH]1` [drawing 795], the IC50 is reported as 8.08 nM. Compound `c1ccc2sc(Nc3ccc(Oc4nccnc4-c4ccc(N5CCOCC5)nc4)cc3)nc2c1` [drawing 762] has an IC50 of 78 nM. Work on `COC(=O)N1CCC(c2nccnc2Oc2ccc(C(=O)c3nc4ccccc4[nH]3)cc2)CC1` [drawing 971] yielded an IC50 of 0.0615 nM. `CC(=O)N1CC=C(c2nccnc2Oc2ccc(C(=O)c3nc4ccccc4[nH]3)cc2)CC1` [drawing 751] was tested, and the IC50 was 1.16 nM. Work on `COc1cc(-c2nccnc2Oc2ccc(Nc3nc4ccccc4s3)cc2)ccn1` [drawing 958] yielded an IC50 of 46.4 nM. With `CC(=O)N1CCC(c2nccnc2Oc2ccc(C(=O)c3nc4ccccc4n3C)cc2)CC1` [drawing 965] the IC50 was 0.174 nM. Compound `COc1cncc(-c2nccnc2Oc2ccc(Nc3nc4ccccc4s3)cc2)c1` [drawing 918] has an IC50 of 12.2 nM. `COc1ncccc1-c1nccnc1Oc1ccc(Nc2nc3ccccc3s2)c(F)c1` [drawing 972] gave an IC50 of 2.68 nM. Work on `OCc1ccc(-c2nccnc2Oc2ccc(Nc3nc4ccccc4s3)cc2)cn1` [drawing 804] yielded an IC50 of 4.12 nM. In the case of `CC1(C)C=C(c2nccnc2Oc2ccc(C(=O)c3nc4ccccc4[nH]3)cc2)C(=O)CC1` [drawing 916], the IC50 is reported as 166 nM. In the case of `Fc1ccc2nc(Nc3ccc(Oc4nccnc4Cl)cc3)sc2c1` [drawing 833], the IC50 is reported as 538 nM. Work on `COc1cc(-c2nccnc2Oc2ccc(C(=O)c3nc4ccccc4[nH]3)cc2)ccn1` [drawing 883] yielded an IC50 of 7.56 nM. Compound `O=C(c1ccc(Oc2nccnc2N2CCC[C@H]2CO)cc1)c1nc2ccccc2[nH]1` has an IC50 of 1.12 nM. Compound `OC1(c2nccnc2Oc2ccc(Nc3nc4ccccc4s3)cc2)CCOCC1` [drawing 902] has an IC50 of 0.902 nM. `O[C@@H]1C=C(c2nccnc2Oc2ccc(Nc3nc4ccccc4s3)c(F)c2)CCC1` (stereo in doubt) was tested, and the IC50 was 7.9 nM. Work on `O=C(c1ccc(Oc2nccnc2[C@H]2CCC[C@H](O)C2)cc1)c1nc2ccccc2[nH]1` [drawing 915] yielded an IC50 of 1.12 nM. `O=C(c1ccc(Oc2nccnc2C(=O)NCCc2ccccc2)cc1)c1nc2ccccc2[nH]1` [drawing 827] showed an IC50 of 4.47 nM. `O=C(c1ccc(Oc2nccnc2Cl)cc1)c1nc2ncccc2[nH]1` gave an IC50 of 171 nM. `O=C(c1ccc(Oc2nccnc2OCCN2CCOCC2)cc1)c1nc2ccccc2[nH]1` [drawing 855] showed an IC50 of 89.5 nM. With `O=C(c1ccc(Oc2nccnc2C(=O)NC2(Cc3ccccc3)CC2)cc1)c1nc2ccccc2[nH]1` [drawing 822] the IC50 was 0.575 nM. Work on `COc1cnccc1-c1nccnc1Oc1ccc(C(=O)c2nc3ccccc3[nH]2)cc1` [drawing 960] yielded an IC50 of 0.489 nM. `CC1(C)CCC(=O)[C@@H](c2nccnc2Oc2ccc(C(=O)c3nc4ccccc4[nH]3)cc2)C1` showed an IC50 of 154 nM. In the case of `COC(=O)[C@H]1CCN(c2nccnc2Oc2ccc(C(=O)c3nc4ccccc4[nH]3)cc2)C1` [drawing 837], the IC50 is reported as 4.21 nM. Work on `COC(=O)[C@H]1CCN(c2nccnc2Oc2ccc(Nc3nc4ccccc4s3)cc2)C1` (stereo in doubt) yielded an IC50 of 23 nM. `N#Cc1ccc(-c2nccnc2Oc2ccc(C(=O)c3nc4ccccc4[nH]3)cc2)cc1` [drawing 734] was tested, and the IC50 was 17.5 nM. `O=C(c1ccc(Oc2nccnc2C2CCCC2)cc1)c1nc2ccccc2[nH]1` [drawing 949] gave an IC50 of 1.76 nM. For `O=C(c1ccc(Oc2nccnc2[C@H]2CCCOC2)cc1)c1nc2ccccc2[nH]1` (stereo in doubt), the IC50 was 2.59 nM.

Same assay, conditions: PDE10 enzyme inhibition; chiral compounds separated from racemic mixtures; read-out: IC50
Compound `C[C@@H](F)C(=O)N1CCC(c2nccnc2Oc2ccc(C(=O)c3nc4ccccc4[nH]3)cc2)CC1` [Example 277, (R)-1-(4-(3-(4-(1H-benzo[d]imidazole-2-carbonyl)phenoxy)pyrazin-2-yl)piperidin-1-yl)-2-fluoropropan-1-one] has an IC50 of under 25 nM. With `C[C@H](F)C(=O)N1CCC(c2nccnc2Oc2ccc(C(=O)c3nc4ccccc4[nH]3)cc2)CC1` [Example 278, (S)-1-(4-(3-(4-(1H-benzo[d]imidazole-2-carbonyl)phenoxy)pyrazin-2-yl)piperidin-1-yl)-2-fluoropropan-1-one] the IC50 was under 25 nM. Compound `O=C(c1ccc(Oc2nccnc2[C@H]2CCC[C@@H](O)C2)cc1)c1nc2ccccc2[nH]1` [Example 270, (1H-benzo[d]imidazol-2-yl)(4-(3-((1S,3R)-3-hydroxycyclohexyl)pyrazin-2-yloxy)phenyl) methanone] has an IC50 of under 25 nM.
